{"source": "patent US10799475B2", "about": "“Substituted phenyl aziridine precursor analogs for inhibiting androgen-independent prostate cancer cell growth” (Northwestern University, priority 2007, dated 2020)", "key": {"AR [1]": {"biological_target": "T1, AR (Homo sapiens, UniProt P10275, T878A)", "T1 construct": "epithelial cells expressing endogenous AR, LNCaP prostate cells were studied; endogenous in cells; host or cells: LNCaP", "T1 sequence (P10275 1-920 T878A)": "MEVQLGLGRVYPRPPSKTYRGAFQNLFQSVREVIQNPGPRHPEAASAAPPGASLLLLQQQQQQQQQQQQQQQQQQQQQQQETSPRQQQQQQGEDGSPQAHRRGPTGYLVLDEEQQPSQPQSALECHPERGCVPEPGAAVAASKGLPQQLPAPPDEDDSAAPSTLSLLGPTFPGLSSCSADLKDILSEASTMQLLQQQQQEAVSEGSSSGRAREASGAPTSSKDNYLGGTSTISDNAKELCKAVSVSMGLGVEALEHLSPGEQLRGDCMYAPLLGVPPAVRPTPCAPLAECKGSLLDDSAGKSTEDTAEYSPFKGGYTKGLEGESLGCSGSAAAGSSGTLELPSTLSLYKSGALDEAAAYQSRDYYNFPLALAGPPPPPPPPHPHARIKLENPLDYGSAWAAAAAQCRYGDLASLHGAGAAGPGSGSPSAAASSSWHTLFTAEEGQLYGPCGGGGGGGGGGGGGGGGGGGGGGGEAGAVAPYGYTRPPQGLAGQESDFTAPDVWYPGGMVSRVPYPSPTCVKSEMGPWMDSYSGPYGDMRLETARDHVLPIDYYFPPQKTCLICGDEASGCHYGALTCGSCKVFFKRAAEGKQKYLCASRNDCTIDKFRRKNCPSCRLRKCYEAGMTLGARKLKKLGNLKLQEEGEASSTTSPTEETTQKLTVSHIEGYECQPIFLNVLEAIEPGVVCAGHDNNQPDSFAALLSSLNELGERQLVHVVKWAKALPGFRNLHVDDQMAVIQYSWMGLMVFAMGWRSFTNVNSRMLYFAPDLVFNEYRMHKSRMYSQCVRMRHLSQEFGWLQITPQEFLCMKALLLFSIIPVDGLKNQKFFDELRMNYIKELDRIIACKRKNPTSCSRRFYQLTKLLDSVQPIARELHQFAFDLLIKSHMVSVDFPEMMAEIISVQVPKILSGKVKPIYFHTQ", "experiment": "EMSA of AR-DNA binding in LNCaP cells", "type": "cell-based"}, "AR [2]": {"biological_target": "T2, AR (Homo sapiens, UniProt P10275)", "T2 sequence (P10275 1-920)": "T1 sequence (P10275 1-920 T878A) with A878T", "conditions": "cited from earlier work"}, "PWR-1E cells": {"test_system": "PWR-1E cells", "type": "cell-based", "conditions": "tested range of concentrations"}}, "note": "Positions count from the first letter of the chain named.", "data": [{"smiles": "CNCC(Cl)c1ccc(OC(C)=O)cc1.Cl", "note": "(stereo not drawn) [CpdA, 2-(4-acetoxyphenyl)-2-chloro-N-methyl-ethylammonium chloride]", "values": [{"measurement": "AR DNA binding", "setting": "AR [1]", "value": "constitutively inhibit AR DNA binding and especially DHT-induced AR DNA binding"}, {"measurement": "competition for AR binding", "setting": "AR [2]", "value": "does not compete with androgen for AR binding"}, {"measurement": "growth inhibition", "setting": "PWR-1E cells", "value": "rather resistant"}]}]}
